From PubChem BioAssay AID330 (DTP/NCI, 2004)
“And” between values parts separate entries of the source, which are not always exact repeats. Equal entries are not always repeated. Toxic doses and inconclusive results are not listed. How the source made its calls: active means survival T/C of 150% or more; inactive means T/C below 125% in these data.

Tested on: P388 leukemia ip, CD2F1 mice, survival T/C
Test: NCI In Vivo Anticancer Drug Screen. Data for tumor model P388 Leukemia (intraperitoneal) in CD2F1 (CDF1) mice
Details: endpoint: median survival time, higher = longer survival
Outline: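 Mice carrying the transplanted tumor received test compound or vehicle. Survival was recorded in each group, and the value is the treated-group measurement divided by that of the vehicle-treated control group.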

[1] = dose: 50.0 mg/kg/injection, schedule: Q01DX005 (ip), vehicle: saline with Tween-80
[2] = dose: 100.0 mg/kg/injection, schedule: Q01DX005 (ip), vehicle: saline with Tween-80
[3] = dose: 200.0 mg/kg/injection, schedule: Q01DX005 (ip), vehicle: saline with Tween-80
[4] = dose: 60.0 mg/kg/injection, schedule: Q01DX005 (ip), vehicle: saline with Tween-80
[5] = dose: 120.0 mg/kg/injection, schedule: Q01DX005 (ip), vehicle: saline with Tween-80
[6] = dose: 240.0 mg/kg/injection, schedule: Q01DX005 (ip), vehicle: saline with Tween-80
[7] = dose: 50.0 mg/kg/injection, schedule: Q01DX009 (ip), vehicle: saline

Measured: T/C

N#CCCN(CCC#N)Cc1c(O)c(O)c(CN(CCC#N)CCC#N)c2ccccc12
inactive: [1] 102 % of control and 105 % of control | [2] 115 % of control and 118 % of control | [3] 122 % of control and 124 % of control

CC(=O)c1c(OCC(O)CNC(C)C)ccc2c(C)cc(=O)oc12 (stereo not given)
inactive: [1] 100 % of control | [2] 92 % of control

COC1=CC(=O)N/C1=C(\OC)c1ccccc1
inactive: [4] 90 % of control | [5] 93 % of control | [6] 99 % of control

CC(=O)NC(C=O)C(O)C(O)C(O)C(=O)O (stereo not given) (tested in a mixture with another compound)
inactive: dose: 6.25 mg/kg/injection, schedule: Q01DX009 (ip), vehicle: Klucel (hydroxypropylcellulose) (HPC) 101 % of control | dose: 12.5 mg/kg/injection, schedule: Q01DX009 (ip), vehicle: Klucel (hydroxypropylcellulose) (HPC) 94 % of control | dose: 25.0 mg/kg/injection, schedule: Q01DX009 (ip), vehicle: Klucel (hydroxypropylcellulose) (HPC) 92 % of control

CCN=NNc1ccc([N+](=O)[O-])cc1
inactive: dose: 12.5 mg/kg/injection, schedule: Q01DX009 (ip), vehicle: distilled water + Tween-80 95 % of control | dose: 25.0 mg/kg/injection, schedule: Q01DX009 (ip), vehicle: distilled water + Tween-80 100 % of control | dose: 50.0 mg/kg/injection, schedule: Q01DX009 (ip), vehicle: distilled water + Tween-80 105 % of control | dose: 100.0 mg/kg/injection, schedule: Q01DX009 (ip), vehicle: distilled water + Tween-80 100 % of control | dose: 200.0 mg/kg/injection, schedule: Q01DX009 (ip), vehicle: distilled water + Tween-80 112 % of control

N#Cc1nccnc1C#N
inactive: dose: 12.5 mg/kg/injection, schedule: Q01DX009 (ip), vehicle: saline with Tween-80 86 % of control | dose: 25.0 mg/kg/injection, schedule: Q01DX009 (ip), vehicle: saline with Tween-80 105 % of control | dose: 50.0 mg/kg/injection, schedule: Q01DX009 (ip), vehicle: Klucel (hydroxypropylcellulose) (HPC) 102 % of control | dose: 50.0 mg/kg/injection, schedule: Q01DX009 (ip), vehicle: saline with Tween-80 101 % of control

Nc1ccc(S(=O)(=O)c2ccc(N)cc2)cc1
inactive: dose: 6.25 mg/kg/injection, schedule: Q01DX005 (ip), vehicle: Klucel (hydroxypropylcellulose) (HPC) 106 % of control | dose: 12.5 mg/kg/injection, schedule: Q01DX005 (ip), vehicle: Klucel (hydroxypropylcellulose) (HPC) 98 % of control | dose: 25.0 mg/kg/injection, schedule: Q01DX005 (ip), vehicle: Klucel (hydroxypropylcellulose) (HPC) 104 % of control | dose: 50.0 mg/kg/injection, schedule: Q01DX005 (ip), vehicle: Klucel (hydroxypropylcellulose) (HPC) 105 % of control | dose: 100.0 mg/kg/injection, schedule: Q01DX005 (ip), vehicle: Klucel (hydroxypropylcellulose) (HPC) 109 % of control | dose: 150.0 mg/kg/injection, schedule: Q01DX009 (ip), vehicle: saline with Tween-80 109 % of control and 93 % of control | dose: 200.0 mg/kg/injection, schedule: Q01DX009 (ip), vehicle: saline with Tween-80 98 % of control and 105 % of control

COc1ccc(CNCCCSC)cc1
inactive: dose: 50.0 mg/kg/injection, schedule: Q01DX005 (ip), vehicle: saline 105 % of control | dose: 100.0 mg/kg/injection, schedule: Q01DX005 (ip), vehicle: saline 110 % of control

Fc1ccccc1CN1COc2c(cc(Cl)c3cccnc23)C1
inactive: dose: 100.0 mg/kg/injection, schedule: Q04DX003 (ip), vehicle: Klucel (hydroxypropylcellulose) (HPC) 93 % of control | dose: 200.0 mg/kg/injection, schedule: Q04DX003 (ip), vehicle: Klucel (hydroxypropylcellulose) (HPC) 100 % of control | dose: 400.0 mg/kg/injection, schedule: Q04DX003 (ip), vehicle: Klucel (hydroxypropylcellulose) (HPC) 97 % of control

Cc1cc2c3ccc(C)[n+](C)c3ccc2n1C
inactive: dose: 1.25 mg/kg/injection, schedule: Q01DX010 (ip), vehicle: saline 100 % of control | dose: 2.5 mg/kg/injection, schedule: Q01DX010 (ip), vehicle: saline 105 % of control

CN1CCN2c3ccccc3Cc3ccccc3C2C1 (stereo not given)
inactive: dose: 6.25 mg/kg/injection, schedule: Q01DX009 (ip), vehicle: saline 90 % of control | dose: 12.5 mg/kg/injection, schedule: Q01DX009 (ip), vehicle: saline 94 % of control | dose: 25.0 mg/kg/injection, schedule: Q01DX009 (ip), vehicle: saline 105 % of control and 107 % of control | [7] 118 % of control and 119 % of control

FC(F)(F)COP(=S)(OCC(F)(F)F)OCC(F)(F)F
inactive: [1] 107 % of control | [2] 108 % of control | [3] 110 % of control

NC(=O)c1cn[nH]c1N
inactive: dose: 25.0 mg/kg/injection, schedule: Q01DX009 (ip), vehicle: suspension in saline 118 % of control | [7] 90 % of control | dose: 50.0 mg/kg/injection, schedule: Q01DX009 (ip), vehicle: suspension in saline 97 % of control | dose: 100.0 mg/kg/injection, schedule: Q01DX009 (ip), vehicle: saline 90 % of control | dose: 100.0 mg/kg/injection, schedule: Q01DX009 (ip), vehicle: suspension in saline 104 % of control | dose: 200.0 mg/kg/injection, schedule: Q01DX009 (ip), vehicle: saline 87 % of control | dose: 200.0 mg/kg/injection, schedule: Q01DX009 (ip), vehicle: suspension in saline 94 % of control

CC1CC(C)(C)CC2(C1)OCC(CCl)O2 (stereo not given)
inactive: dose: 25.0 mg/kg/injection, schedule: Q01DX001 (ip), vehicle: saline with Tween-80 109 % of control | dose: 50.0 mg/kg/injection, schedule: Q01DX001 (ip), vehicle: saline with Tween-80 104 % of control | dose: 100.0 mg/kg/injection, schedule: Q01DX001 (ip), vehicle: saline with Tween-80 109 % of control

CN1CCCC2c3ccccc3CCC21 (stereo not given)
inactive: dose: 12.5 mg/kg/injection, schedule: Q04DX003 (ip), vehicle: Klucel (hydroxypropylcellulose) (HPC) 104 % of control | dose: 25.0 mg/kg/injection, schedule: Q04DX003 (ip), vehicle: Klucel (hydroxypropylcellulose) (HPC) 101 % of control

COc1cc(C(NC(N)=O)c2cc3c(cc2O)OCO3)cc(OC)c1OC (stereo not given)
inactive: [4] 106 % of control | [5] 102 % of control | [6] 100 % of control

CCN(CC)CCNC(c1ccc(OC)cc1)C(Cl)(Cl)Cl (stereo not given)
inactive: dose: 60.0 mg/kg/injection, schedule: Q01DX005 (ip), vehicle: saline 94 % of control | dose: 120.0 mg/kg/injection, schedule: Q01DX005 (ip), vehicle: saline 94 % of control

C[n+]1c(-c2cccc(OCCOCCOCCOc3cccc(-c4c5cc(N)ccc5c5ccc(N)cc5[n+]4C)c3)c2)c2cc(N)ccc2c2ccc(N)cc21
inactive: dose: 0.39 mg/kg/injection, schedule: Q01DX009 (ip), vehicle: water 111 % of control | dose: 0.78 mg/kg/injection, schedule: Q01DX009 (ip), vehicle: water 104 % of control

CN(C)CC#N
inactive: dose: 5.0 mg/kg/injection, schedule: Q01DX009 (ip), vehicle: saline 104 % of control | dose: 10.0 mg/kg/injection, schedule: Q01DX009 (ip), vehicle: saline 109 % of control | dose: 20.0 mg/kg/injection, schedule: Q01DX009 (ip), vehicle: saline 109 % of control

CCCCOC(=O)N(CCF)N=O
inactive: dose: 3.12 mg/kg/injection, schedule: Q01DX001 (ip), vehicle: saline with Tween-80 109 % of control | dose: 6.25 mg/kg/injection, schedule: Q01DX001 (ip), vehicle: saline with Tween-80 118 % of control and 119 % of control | dose: 12.5 mg/kg/injection, schedule: Q01DX001 (ip), vehicle: saline with Tween-80 118 % of control and 119 % of control

COc1cc(OC)c(-c2oc3c(OC)c(OC)c(OC)c(OC)c3c(=O)c2OC)cc1OC
inactive: dose: 15.0 mg/kg/injection, schedule: Q01DX005 (ip), vehicle: Klucel (hydroxypropylcellulose) (HPC) 94 % of control | dose: 30.0 mg/kg/injection, schedule: Q01DX005 (ip), vehicle: Klucel (hydroxypropylcellulose) (HPC) 102 % of control | dose: 60.0 mg/kg/injection, schedule: Q01DX005 (ip), vehicle: Klucel (hydroxypropylcellulose) (HPC) 92 % of control | dose: 120.0 mg/kg/injection, schedule: Q01DX005 (ip), vehicle: Klucel (hydroxypropylcellulose) (HPC) 90 % of control
